Assay results taken from patent US20220142159A1, “A METHOD AND COMPOSITION FOR INSECT REPELLENCY USING AVERSIVE AGENT” (UPL LTD, priority 2019, published 2022).

How the values were obtained:
[1] = system: Nilgai, deer; experiment: Observed repellence of vermin mammal species; format: in vivo; conditions: because of its bitterness
[2] = system: average person; conditions: cited from earlier work
[3] = in vivo; cited from earlier work

CC[N+](CC)(CC(=O)Nc1c(C)cccc1C)Cc1ccccc1.O=C([O-])c1ccccc1 [Denatonium benzoate, phenylmethyl-[2-[(2,6-dimethylphenyl)amino]-2-oxoethyl]-diethylammonium benzoate]
repellence of vermin mammals [1]: effectively repelled | generally recognized bitter taste ([2]; level of recognised bitter taste): 50 ppb | can be detected by the average person ([2]; taste detection level): 10 ppb | human safety in clinical trials [3]: extremely human safe
